Laboratory results reported in patent US4731486A, “Hydroformylation using low volatile phosphine ligands” (Union Carbide Corporation, priority 1986, dated 1988).

What was measured:
[1] = Batch hydroformylation of propylene in stirred autoclave (Examples 1, 2, 11, 14, 19)
[2] = Solubility of TPPMS-Na in various aldehydes with solubilizing agent mixture; format: physicochemical; details: TERGITOL 24-L-75N/CARBOWAX TPEG-900 (4:1)
From the text: The solubilizing agent mixture was employed in a 1:2 weight:weight ratio with the various aldehydes.

[3] = Solubility of TPPMS-Na in nonanal with various added solubilizing agents; format: physicochemical
Experimental: The solubility of a monosulfonated triphenylphosphine sodium salt ligand (TPPMS-Na) having the formula [drawing 28] was measured in C9 aldehyde (nonanal) in the presence of various added solubilizing agents and various mixtures of such agents for the ligand. […] The solubilizing agents and their mixtures were employed in a 1:2 weight:weight ratio with the nonanal.

[4] = Batch hydroformylation of octene-1 (Examples 14, 15, 19)
Experimental: Each rhodium catalytic precursor solution so prepared was then employed to hydroformylate propylene in a magnetically stirred, 100 mL capacity, stainless steel autoclave which was attached to a gas manifold for introducing gases to the desired partial pressures. The autoclave was also equipped with a pressure calibrator for determining reaction pressure to ±0.01 psia. and a platinum resistance thermometer for determining reactor solution temperatures to ±0.10° C. The reactor was heated externally by two 300 watt heating bands. The reactor solution temperature was controlled by a platinum resistance sensor connected to an external proportional temperature controller for controlling the temperature of the external band heaters.
In each non-aqueous hydroformylation reaction, about 15 milliliters (about 14 grams) of the rhodium catalytic precursor solution so prepared was charged to the autoclave reactor under nitrogen and heated to the reaction temperature employed (as given in Table 1 below). The reactor was then vented down to 5 psig. and a premixed gas mixture of 1:1:1 carbon monoxide:hydrogen:propylene was introduced into the reactor via the gas manifold (partial pressures given in Table 1) and the propylene so hydroformylated.
The hydroformylation reaction rate in gram moles per liter per hour of C4 aldehydes produced was determined from sequential 5 psia. pressure drops in the reactor spanning the nominal operating pressure in the reactor, while the mole ratio of linear (n-butyraldehyde) to branched (2-methylpropionaldehyde) product was measured by gas chromatography and the results are given in Table 1 below.
The same procedure and conditions employed in Example 1 of preparing various rhodium catalytic precursor solutions using rhodium dicarbonyl acetylacetonate, about a 3:1 (wt.:wt. ratio) mixture of Texanol® and CARBOWAX® TPEG-990 (about 25 wt. %) as the solubilizing agent, and a monosulfonated triphenylphosphine sodium salt ligand having the formula [drawing 26] and hydroformylating an olefin was repeated employing the various rhodium complex catalyst precursor solutions and using different alpha olefins as the hydroformylation feedstocks and the reaction conditions as shown in Table 14 below.
The same procedure and conditions employed in Example 1 of preparing various rhodium catalytic precursor solutions using rhodium dicarbonyl acethylacetonate, a monosulfonated triphenylphosphine sodium salt ligand having the formula [drawing 27] and various mixtures of Texanol® and varying amounts (about 15 wt. % in Run No. 1 and about 10 wt. % in Run Nos. 2 to 5) of different added solubilizing agents as given in Table 15 below, and hydroformylating octene-1 was repeated employing the various rhodium complex catalyst precursor solutions and the reaction conditions as shown in Table 15 below.
A comparison of the catalytic activity of aqueous and non-aqueous solutions of monosulfonated triphenylphosphine sodium salt ligand promoted catalysts in hydroformylating various molecular weight alphe-olefins was determined as follows.

[5] = Solubility of metal salt ligands in nonanal with added solubilizing agent; format: physicochemical; details: 25° C.; nonanal with 1:4 CARBOWAX TPEG-900/TERGITOL NP-9
[6] = HPLC analysis of ligand concentration in hydroformylation reaction mediums; format: physicochemical; details: both reactors, six days of operation
[7] = TERGITOL 15-S-3/CARBOWAX PEG 600/Dimethyl Sulfoxide (4:1:1), 100° C., 200 ppm Rh, 90 psia 1:1:1 H2:CO:C3H6
[8] = TERGITOL 15-S-7/CARBOWAX TPEG 990/N-Methyl Pyrolidone (4:1:1), 100° C., 200 ppm Rh, 90 psia 1:1:1 H2:CO:C3H6
[9] = TERGITOL 15-S-7, 100° C., 200 ppm Rh, 90 psia 1:1:1 H2:CO:C3H6
[10] = TERGITOL 24-L-75N/NIAX PPG 1025 (4:1), 100° C., 200 ppm Rh, 90 psia 1:1:1 H2:CO:C3H6
[11] = TERGITOL NP-4/CARBOWAX TPEG 990 (4:1), 100° C., 200 ppm Rh, 90 psia 1:1:1 H2:CO:C3H6
[12] = TERGITOL NP-9, 100° C., 200 ppm Rh, 90 psia 1:1:1 H2:CO:C3H6
[13] = Texanol/TPEG-990 3:1, 90° C., 300 ppm Rh, 8.7 wt. % ligand, 90 psia 1:1:1 H2:CO:C3H6
[14] = aqueous (water as solvent), 100° C., 300 ppm Rh, 90 psia 1:1:1 H2:CO:Propylene
[15] = non-aqueous (Texanol/Carbowax TPEG990 2.6:1), 100° C., 300 ppm Rh, 90 psia 1:1:1 H2:CO:Propylene
[16] = Texanol/Benzonitrile (8:1), 90° C., 200 ppm Rh, 10 wt. % ligand, 75 psia 4:1 H2:CO
[17] = Texanol/Carbowax PEG 150, 90° C., 200 ppm Rh, 10 wt. % ligand, 75 psia 4:1 H2:CO
[18] = Texanol/Dimethyl Sulfoxide (5.5:1), 90° C., 200 ppm Rh, 10 wt. % ligand, 75 psia 4:1 H2:CO
[19] = Texanol/Niax PPG-1025, 90° C., 200 ppm Rh, 10 wt. % ligand, 75 psia 4:1 H2:CO
[20] = Texanol/Sulfolane (8:1), 90° C., 200 ppm Rh, 10 wt. % ligand, 75 psia 4:1 H2:CO
[21] = Texanol/TPEG-990 3:1, 100° C., 300 ppm Rh, 8.7 wt. % ligand, 75 psia 4:1 H2:CO
[22] = aqueous (water as solvent), 100° C., 300 ppm Rh, 90 psia 1:1 H2:CO
[23] = non-aqueous (Texanol/Carbowax TPEG990 2.6:1), 100° C., 300 ppm Rh, 90 psia 1:1 H2:CO

## O=S(=O)([O-])c1cccc(P(c2ccccc2)c2ccccc2)c1.[Na+]
[1]; 200 ppm Rh, about 120 mole equivalents ligand, 100° C., 60 psia 1:1:1 H2:CO:C3H6, Texanol/Carbowax PEG-600 10:1
  Linear/Branched Aldehyde Mole Ratio: 6.4
[1]; 200 ppm Rh, about 120 mole equivalents ligand, 100° C., 60 psia 1:1:1 H2:CO:C3H6, Texanol/Carbowax PEG-600 10:1, average of two runs
  Reaction Rate (C4 aldehydes): 0.28 Gmoles/L/Hr
[1]; [7]
  Linear/Branched Aldehyde Mole Ratio: 5.6
  Reaction Rate (C4 aldehydes): 0.25 G moles/L/hr
[1]; [8]
  Linear/Branched Aldehyde Mole Ratio: 5.0
  Reaction Rate (C4 aldehydes): 0.75 G moles/L/hr
[1]; [9]
  Linear/Branched Aldehyde Mole Ratio: 4.7
  Reaction Rate (C4 aldehydes): 0.49 G moles/L/hr
[1]; [10]
  Linear/Branched Aldehyde Mole Ratio: 5.3
  Reaction Rate (C4 aldehydes): 0.54 G moles/L/hr
[1]; [11]
  Linear/Branched Aldehyde Mole Ratio: 6.0
  Reaction Rate (C4 aldehydes): 0.59 G moles/L/hr
[1]; [12]
  Linear/Branched Aldehyde Mole Ratio: 5.1
  Reaction Rate (C4 aldehydes): 0.67 G moles/L/hr
[1]; [13]
  Linear/Branched Aldehyde Mole Ratio: 5.0
  Reaction Rate: 1.72 G moles/L/hr
[1]; [14]
  Linear/Branched Aldehyde Mole Ratio: 19.3
  Reaction Rate: 0.07 G Moles/L/Hr
[1]; [15]
  Linear/Branched Aldehyde Mole Ratio: 4.8
  Reaction Rate: 2.60 G Moles/L/Hr
[2]; Butyraldehyde
  TPPMS-Na Solubility at 25 deg. C.: > 20 Weight Percent
[2]; Heptanal
  TPPMS-Na Solubility at 25 deg. C.: 18 Weight Percent
[2]; Nonanal
  TPPMS-Na Solubility at 25 deg. C.: 12 Weight Percent
[2]; Tridecanal
  TPPMS-Na Solubility at 25 deg. C.: 8 Weight Percent
[2]; Valeraldehyde
  TPPMS-Na Solubility at 25 deg. C.: > 20 Weight Percent
[3]; NIAX PPG-1025, 25 deg. C.
  TPPMS-Na Solubility: < 2 Weight Percent
[3]; NIAX PPG-1025, 100 deg. C.
  TPPMS-Na Solubility: 2 Weight Percent
[3]; TERGITOL 15-S-3/CARBOWAX PEG 600 (4:1), 25 deg. C.
  TPPMS-Na Solubility: 2 Weight Percent
[3]; TERGITOL 15-S-3/CARBOWAX PEG 600 (4:1), 100 deg. C.
  TPPMS-Na Solubility: > 10 Weight Percent
[3]; TERGITOL 15-S-3/CARBOWAX PEG 600/Methanol (4:1:1), 25 deg. C.
  TPPMS-Na Solubility: > 6 Weight Percent
[3]; TERGITOL 15-S-3, 25 deg. C.
  TPPMS-Na Solubility: 2 Weight Percent
[3]; TERGITOL 15-S-3, 100 deg. C.
  TPPMS-Na Solubility: 8 Weight Percent
[3]; TERGITOL 15-S-7/CARBOWAX TPEG 990 (3:1), 25 deg. C.
  TPPMS-Na Solubility: 10 Weight Percent
[3]; TERGITOL 15-S-7/CARBOWAX TPEG 990 (3:1), 100 deg. C.
  TPPMS-Na Solubility: 8 Weight Percent
[3]; TERGITOL 15-S-7, 25 deg. C.
  TPPMS-Na Solubility: 4 Weight Percent
[3]; TERGITOL 15-S-7, 100 deg. C.
  TPPMS-Na Solubility: 8 Weight Percent
[3]; TERGITOL 24-L-15N, 25 deg. C.
  TPPMS-Na Solubility: 2 Weight Percent
[3]; TERGITOL 24-L-15N, 100 deg. C.
  TPPMS-Na Solubility: 8 Weight Percent
[3]; TERGITOL 24-L-50N/CARBOWAX PEG 600 (4:1), 25 deg. C.
  TPPMS-Na Solubility: > 10 Weight Percent
[3]; TERGITOL 24-L-50N/CARBOWAX PEG 600 (4:1), 100 deg. C.
  TPPMS-Na Solubility: > 10 Weight Percent
[3]; TERGITOL 24-L-50N, 25 deg. C.
  TPPMS-Na Solubility: 4 Weight Percent
[3]; TERGITOL 24-L-50N, 100 deg. C.
  TPPMS-Na Solubility: 8 Weight Percent
[3]; TERGITOL 24-L-75N/CARBOWAX TPEG 990 (4:1), 25 deg. C.
  TPPMS-Na Solubility: 12 Weight Percent
[3]; TERGITOL 24-L-75N/CARBOWAX TPEG 990 (4:1), 100 deg. C.
  TPPMS-Na Solubility: 14 Weight Percent
[3]; TERGITOL 24-L-75N/CARBOWAX TPEG 990/Methanol (4:1:1), 25 deg. C.
  TPPMS-Na Solubility: > 16 Weight Percent
[3]; TERGITOL 24-L-75N/NIAX PPG 1025 (2:1), 25 deg. C.
  TPPMS-Na Solubility: > 10 Weight Percent
[3]; TERGITOL 24-L-75N/NIAX PPG 1025 (2:1), 100 deg. C.
  TPPMS-Na Solubility: > 10 Weight Percent
[3]; TERGITOL 24-L-75N, 25 deg. C.
  TPPMS-Na Solubility: 6 Weight Percent
[3]; TERGITOL 24-L-75N, 100 deg. C.
  TPPMS-Na Solubility: 8 Weight Percent
[3]; TERGITOL 25-L-5, 25 deg. C.
  TPPMS-Na Solubility: 4 Weight Percent
[3]; TERGITOL 25-L-5, 100 deg. C.
  TPPMS-Na Solubility: 6 Weight Percent
[3]; TERGITOL 26-L-5, 25 deg. C.
  TPPMS-Na Solubility: 2 Weight Percent
[3]; TERGITOL 26-L-5, 100 deg. C.
  TPPMS-Na Solubility: 6 Weight Percent
[3]; TERGITOL NP-4/CARBOWAX TPEG 990 (4:1), 25 deg. C.
  TPPMS-Na Solubility: 8 Weight Percent
[3]; TERGITOL NP-4/CARBOWAX TPEG 990 (4:1), 100 deg. C.
  TPPMS-Na Solubility: 10 Weight Percent
[3]; TERGITOL NP-4, 25 deg. C.
  TPPMS-Na Solubility: 2 Weight Percent
[3]; TERGITOL NP-4, 100 deg. C.
  TPPMS-Na Solubility: 6 Weight Percent
[3]; TERGITOL NP-9/CARBOWAX PEG 600 (3:1), 25 deg. C.
  TPPMS-Na Solubility: 10 Weight Percent
[3]; TERGITOL NP-9/CARBOWAX PEG 600 (3:1), 100 deg. C.
  TPPMS-Na Solubility: > 10 Weight Percent
[3]; TERGITOL NP-9/CARBOWAX PEG 600/Methanol (3:1:1), 25 deg. C.
  TPPMS-Na Solubility: > 12 Weight Percent
[3]; TERGITOL NP-9, 25 deg. C.
  TPPMS-Na Solubility: 4 Weight Percent
[3]; TERGITOL NP-9, 100 deg. C.
  TPPMS-Na Solubility: 6 Weight Percent
[4]; [16]
  Linear/Branched Aldehyde Mole Ratio: 26.6
  Reaction Rate (C9 aldehydes): 0.47 G moles/L/hr
[4]; [17]
  Linear/Branched Aldehyde Mole Ratio: 17.6
  Reaction Rate (C9 aldehydes): 1.12 G moles/L/hr
[4]; [18]
  Linear/Branched Aldehyde Mole Ratio: 18.7
  Reaction Rate (C9 aldehydes): 0.95 G moles/L/hr
[4]; [19]
  Linear/Branched Aldehyde Mole Ratio: 23.9
  Reaction Rate (C9 aldehydes): 0.71 G moles/L/hr
[4]; [20]
  Linear/Branched Aldehyde Mole Ratio: 19.1
  Reaction Rate (C9 aldehydes): 0.98 G moles/L/hr
[4]; [21]
  Linear/Branched Aldehyde Mole Ratio: 14.8
  Reaction Rate: 4.17 G moles/L/hr
[4]; [22]
  Linear/Branched Aldehyde Mole Ratio: 40.9
  Reaction Rate: 0.11 G Moles/L/Hr
[4]; [23]
  Linear/Branched Aldehyde Mole Ratio: 5.8
  Reaction Rate: 2.84 G Moles/L/Hr
[5]
  Metal Salt Solubility: 25 Wt. %
[6]
  change in ligand concentration of reaction mediums: no significant change
